Measured values as given in paper PMC10762035, “Molecular basis of human trace amine-associated receptor 1 activation” (Nature Communications, 2024).
Positions count from the first letter of the chain named. Values joined by “and” are separate entries in the source; they are usually repeats but may differ in a detail not shown here. Identical values can stand only once. Like-named read-outs stand apart in the source and are kept apart here.

Assays:
[1] = target: T1, hTA1 C88/178S (Homo sapiens, UniProt Q96RJ0, C178S/C88S); assay: GloSensor cAMP accumulation assay, C88S/C178S double mutant; format: cell-based; conditions: for Normalized Luminescence Counts (N=2): log[Compound], single replicate values
T1 construct: expressed in transfected cells; host or cells: HEK293T
T1 sequence (Q96RJ0 1-339 C88S/C178S): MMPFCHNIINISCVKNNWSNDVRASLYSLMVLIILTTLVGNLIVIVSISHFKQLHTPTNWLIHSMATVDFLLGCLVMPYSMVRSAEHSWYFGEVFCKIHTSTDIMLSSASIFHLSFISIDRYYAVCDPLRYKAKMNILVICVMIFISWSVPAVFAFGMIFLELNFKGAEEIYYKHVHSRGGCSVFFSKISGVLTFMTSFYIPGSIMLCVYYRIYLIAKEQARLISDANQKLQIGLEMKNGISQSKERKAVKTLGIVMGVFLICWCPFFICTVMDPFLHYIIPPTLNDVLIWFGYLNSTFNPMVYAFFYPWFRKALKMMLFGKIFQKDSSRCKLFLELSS

[2] = target: T2, hTA1 C5S (Homo sapiens, UniProt Q96RJ0, C5S); assay: GloSensor cAMP accumulation assay, C5S mutant; format: cell-based; conditions: for C5S - Normalized Luminescence Counts (N=2): log[Compound], single wells
T2 construct: expressed in transfected cells; host or cells: HEK293T
T2 sequence (Q96RJ0 1-339 C5S): T1 sequence (Q96RJ0 1-339 C88S/C178S) with C5S, S88C, S178C

## CCC(CC1COC(N)=N1)c1ccccc1 (stereo not shown) [Ro5256390]
[1]; C88S, C178S, M = -5
  Normalized Luminescence Counts (N=2): 108.214 and 110.475 and 102.673 and 112.685 and 109.211 and 118.575
[1]; C88S, C178S, M = -5.522
  Normalized Luminescence Counts (N=2): 107.14 and 118.277 and 96.6804 and 111.477 and 99.2423 and 137.304
[1]; C88S, C178S, M = -6
  Normalized Luminescence Counts (N=2): 102.956 and 112.171 and 95.8888 and 120.841 and 90.9352 and 145.46
[1]; C88S, C178S, M = -6.522
  Normalized Luminescence Counts (N=2): 97.5284 and 100.073 and 116.864 and 116.461 and 100.602 and 130.658
[1]; C88S, C178S, M = -7
  Normalized Luminescence Counts (N=2): 99.1114 and 95.1539 and 92.6097 and 130.507 and 95.1643 and 125.523
[1]; C88S, C178S, M = -7.522
  Normalized Luminescence Counts (N=2): 77.3448 and 82.7723 and 86.5603 and 108.607 and 127.336 and 130.961
[1]; C88S, C178S, M = -8
  Normalized Luminescence Counts (N=2): 51.564 and 41.5569 and 41.3873 and 109.966 and 74.6229 and 107.852
[1]; C88S, C178S, M = -8.522
  Normalized Luminescence Counts (N=2): 25.1047 and 27.2531 and 18.3768 and 63.5971 and 68.4303 and 61.3315
[1]; C88S, C178S, M = -9
  Normalized Luminescence Counts (N=2): 12.0447 and 13.3451 and 14.08 and 33.9934 and 34.4465 and 30.5195
[1]; C88S, C178S, M = -9.522
  Normalized Luminescence Counts (N=2): 6.334 and 4.865 and 5.4299 and 15.8687 and 15.4156 and 17.077
[1]; C88S, C178S, M = -10
  Normalized Luminescence Counts (N=2): 1.925 and 5.769 and 1.359 and 9.978 and 13.6031 and 14.0562
[1]; C88S, C178S, M = -10.522
  Normalized Luminescence Counts (N=2): 1.303 and 1.416 and 1.359 and 5.9 and 3.6345 and 7.562
[1]; C88S, C178S, M = -11
  Normalized Luminescence Counts (N=2): 1.02 and 0.285 and 0.3416 and 4.3897 and 3.181 and 3.937
[1]; C88S, C178S, M = -11.522
  Normalized Luminescence Counts (N=2): 1.416 and 0.4547 and 1.585 and 3.03 and 0.6137 and 2.275
[1]; C88S, C178S, M = -12
  Normalized Luminescence Counts (N=2): 0.0589 and 1.303 and -0.3369 and 0.9158 and 0.009559 and 0.7648
[1]; C88S, C178S, M = -12.522
  Normalized Luminescence Counts (N=2): -0.05417 and 0.8504 and 0.7373 and 2.577 and 0.4627 and -0.2925
[1]; C88S, C178S, normalized (β-PEA = 100), each row is one independent experiment, 3 replicates
  Emax values, Mean: 105.892 and 116.339
[1]; EC50, C88/178S, n=2
  EC50: 5.38 nM
[1]; pEC50 values, Mean, C88S, C178S, each row is one independent experiment, 3 replicates
  EC50: 11.8 nM and 2.46 nM
[1]; read-out: Span ± SEM (Emax normalized to β-PEA)
  Emax: 111 ± 5.22%
[2]; EC50, C5S, n=2
  EC50: 9.93 nM
[2]; hTA1 C5S, β-PEA = 100, mean of 3 replicates, one line per independent experiment
  Emax values, Mean: 93.1178
[2]; M = -5
  C5S - Normalized Luminescence Counts (N=2): 103.833 and 96.8115 and 93.515 and 109.052 and 73.4937 and 115.059
[2]; M = -5.522
  C5S - Normalized Luminescence Counts (N=2): 100.921 and 96.3599 and 95.6826 and 93.2407 and 55.8872 and 98.4881
[2]; M = -6
  C5S - Normalized Luminescence Counts (N=2): 105.12 and 94.0343 and 79.8326 and 75.5651 and 84.541 and 101.802
[2]; M = -6.522
  C5S - Normalized Luminescence Counts (N=2): 95.389 and 104.217 and 100.289 and 100.214 and 115.957 and 88.6146
[2]; M = -7
  C5S - Normalized Luminescence Counts (N=2): 82.6549 and 83.4903 and 89.3381 and 93.6549 and 93.9311 and 89.0289
[2]; M = -7.522
  C5S - Normalized Luminescence Counts (N=2): 62.4022 and 62.4925 and 74.2106 and 83.9196 and 70.5248 and 74.2532
[2]; M = -8
  C5S - Normalized Luminescence Counts (N=2): 36.7307 and 40.4787 and 36.4823 and 59.3395 and 54.6444 and 53.6087
[2]; M = -9
  C5S - Normalized Luminescence Counts (N=2): 8.372 and 7.4241 and 6.656 and 9.834 and 7.901 and 11.353
[2]; pEC50 values, Mean, hTA1 C5S, mean of 3 replicates, one line per independent experiment
  EC50: 15.2 nM and 6.48 nM
[2]; pEC50 ± SEM, C5S, n=2
  EC50: 10 nM
[2]; read-out: Emax values, Mean, hTA1 C5S, β-PEA = 100, mean of 3 replicates, one line per independent experiment
  Emax: 97.6%
[2]; read-out: Span ± SEM (Emax normalized to β-PEA), C5S, n=2
  Emax: 95.4 ± 2.26%
